The record followed here is ChEMBL document CHEMBL1933041, “Synthesis and biological evaluation of substituted pyrazoles as blockers of divalent metal transporter 1 (DMT1)” (Bioorg Med Chem Lett, 2012).

Data set [1] is described as follows: Permeability from basolateral to apical side in human Caco2 cells. It is filed as ADME, cell-based. Particulars: Caco-2, read-out: permeability. (In general: Passage across Caco-2 layers is used to estimate intestinal permeability.)
A short description of data set [2]: Permeability from apical to basolateral side in human Caco2 cells. It is filed as ADME, cell-based. Particulars: Caco-2, read-out: permeability.

Regarding `COc1cccc(NC(=O)c2c(C)[nH]n(-c3ccccn3)c2=O)c1`, the Papp B→A in data set [1] was found to be 15.4 ×10⁻⁶ cm/s. Moreover, in data set [2], the Papp A→B came out at 9 ×10⁻⁶ cm/s.
On to `Cc1nn(-c2nc3ccccc3s2)c(O)c1-c1ccccc1`, for which the Papp B→A in data set [1] turned out to be 6.6 ×10⁻⁶ cm/s. Further, the Papp A→B in data set [2] stood at 6.7 ×10⁻⁶ cm/s.
Regarding `CCN(CC)c1ccc(/C=C2\C(=O)N(c3ccccn3)N=C2C)cc1`, the Papp B→A in data set [1] turned out to be 0.6 ×10⁻⁶ cm/s. Also, the Papp A→B in data set [2] is 0.3 ×10⁻⁶ cm/s.
For the compound `Cc1[nH]n(-c2ccccn2)c(=O)c1-c1ccc([N+](=O)[O-])cc1`, the Papp B→A in data set [1] was determined as 5.6 ×10⁻⁶ cm/s. Moreover, in data set [2], the Papp A→B worked out at 3.5 ×10⁻⁶ cm/s.
For `COc1ccc2nc(-n3nc4c(c3O)-c3ccccc3CC4)sc2c1` the same measures were 16.7 ×10⁻⁶ cm/s and 12.7 ×10⁻⁶ cm/s.
As to `Cc1[nH]n(-c2ccccn2)c(=O)c1C(=O)Nc1ccccc1C(F)(F)F`, the Papp B→A in data set [1] is 14.2 ×10⁻⁶ cm/s. Further, the Papp A→B in data set [2] is 7.8 ×10⁻⁶ cm/s.
For `Cc1[nH]n(-c2ccccn2)c(=O)c1C(=O)Nc1ccc([N+](=O)[O-])cc1` the same measures were 11.5 ×10⁻⁶ cm/s and 7.6 ×10⁻⁶ cm/s.
`Cc1[nH]n(-c2ccccn2)c(=O)c1C(=O)Nc1ccc2c(c1)OCO2`: in data set [1], the Papp B→A stood at 20.8 ×10⁻⁶ cm/s. Besides, in data set [2], the Papp A→B came out at 9.3 ×10⁻⁶ cm/s.
As to `Cc1nn(-c2ccccn2)c(O)c1-c1ccccc1`, in data set [1], the Papp B→A is 16.7 ×10⁻⁶ cm/s. In addition, the Papp A→B in data set [2] turned out to be 8.2 ×10⁻⁶ cm/s.
As to `Cc1ccc2nc(-n3nc4c(c3O)-c3ccccc3CC4)sc2c1`, the Papp B→A in data set [1] was 3.4 ×10⁻⁶ cm/s. Moreover, the Papp A→B in data set [2] was 5.2 ×10⁻⁶ cm/s.
For `Cc1[nH]n(-c2ccccn2)c(=O)c1-c1ccc(C(F)(F)F)cc1` the same measures were 7.9 ×10⁻⁶ cm/s and 3.1 ×10⁻⁶ cm/s.
For `Cc1cccc(NC(=O)c2c(C)[nH]n(-c3ccccn3)c2=O)c1` the same measures were 15.6 ×10⁻⁶ cm/s and 9.9 ×10⁻⁶ cm/s.
On to `N#Cc1ccc2c(c1)CCc1nn(-c3ccccn3)c(O)c1-2`, for which, in data set [1], the Papp B→A turned out to be 13.1 ×10⁻⁶ cm/s. In addition, the Papp A→B in data set [2] came to 2.3 ×10⁻⁶ cm/s.
On the same counts, the results for `Oc1c2c(nn1-c1ccccn1)CCc1ccccc1-2` are 11.7 ×10⁻⁶ cm/s and 8.9 ×10⁻⁶ cm/s.
On the same counts, the results for `Cc1ccc(NC(=O)c2c(C)[nH]n(-c3ccccn3)c2=O)cc1` are 15.3 ×10⁻⁶ cm/s and 6.1 ×10⁻⁶ cm/s.
Regarding `Oc1c2c(nn1-c1ccccn1)CCc1cc(-c3ccccc3)ccc1-2`, in data set [1], the Papp B→A turned out to be 0.9 ×10⁻⁶ cm/s. Also, in data set [2], the Papp A→B was determined as 0.1 ×10⁻⁶ cm/s.
As to `Cc1nn(-c2nc3ccccc3[nH]2)c(O)c1-c1ccccc1`, the Papp B→A in data set [1] worked out at 13.5 ×10⁻⁶ cm/s. Besides, the Papp A→B in data set [2] worked out at 10.1 ×10⁻⁶ cm/s.
On to `Cc1[nH]n(-c2ccccn2)c(=O)c1C(=O)Nc1ccccc1`, for which the Papp B→A in data set [1] came out at 19.6 ×10⁻⁶ cm/s. The Papp A→B in data set [2] was 10.4 ×10⁻⁶ cm/s.
Regarding `Cc1[nH]n(-c2ccccn2)c(=O)c1C(=O)Nc1cccc(C(F)(F)F)c1`, the Papp B→A in data set [1] stood at 8.9 ×10⁻⁶ cm/s. Further, in data set [2], the Papp A→B is 4.5 ×10⁻⁶ cm/s.
Regarding `Oc1c2c(nn1-c1nc3ccccc3s1)CCc1ccccc1-2`, the Papp B→A in data set [1] turned out to be 24 ×10⁻⁶ cm/s. For the same compound, in data set [2], the Papp A→B is 20.8 ×10⁻⁶ cm/s.
For `Oc1c2c(nn1-c1nc3ccccc3[nH]1)CCc1ccccc1-2` the same measures were 6.3 ×10⁻⁶ cm/s and 5.1 ×10⁻⁶ cm/s.
Regarding `COc1ccc(-c2c(C)[nH]n(-c3ccccn3)c2=O)cc1`, the Papp B→A in data set [1] was determined as 16.3 ×10⁻⁶ cm/s. Further, the Papp A→B in data set [2] was determined as 12.7 ×10⁻⁶ cm/s.
For `Cc1[nH]n(-c2ccccn2)c(=O)c1-c1ccc(C#N)cc1` the same measures were 27.8 ×10⁻⁶ cm/s and 21.4 ×10⁻⁶ cm/s.
For `Cc1[nH]n(-c2ccccn2)c(=O)c1-c1cccc(C(F)(F)F)c1` the same measures were 5.8 ×10⁻⁶ cm/s and 7 ×10⁻⁶ cm/s.
For the compound `Cc1[nH]n(-c2ccccn2)c(=O)c1C(=O)Nc1ccccc1[N+](=O)[O-]`, in data set [1], the Papp B→A is 15.5 ×10⁻⁶ cm/s. For the same compound, the Papp A→B in data set [2] amounted to 11.2 ×10⁻⁶ cm/s.
As to `Cc1[nH]n(-c2ccccn2)c(=O)c1-c1ccc(F)cc1`, the Papp B→A in data set [1] worked out at 15.9 ×10⁻⁶ cm/s. Besides, the Papp A→B in data set [2] is 11.2 ×10⁻⁶ cm/s.
On the same counts, the results for `Cc1[nH]n(-c2ccccn2)c(=O)c1C(=O)Nc1ccc(C(F)(F)F)cc1` are 3.9 ×10⁻⁶ cm/s and 0.6 ×10⁻⁶ cm/s.
Regarding `Cc1[nH]n(-c2nc3ccc(F)cc3s2)c(=O)c1-c1ccccc1`, the Papp B→A in data set [1] was determined as 20.1 ×10⁻⁶ cm/s. Further, in data set [2], the Papp A→B stood at 16.8 ×10⁻⁶ cm/s.
On the same counts, the results for `Oc1c2c(nn1-c1nc3ccc(F)cc3s1)CCc1ccccc1-2` are 1.1 ×10⁻⁶ cm/s and 4.3 ×10⁻⁶ cm/s.
Regarding `Cc1[nH]n(-c2nccs2)c(=O)c1-c1ccccc1`, the Papp B→A in data set [1] is 23.8 ×10⁻⁶ cm/s. Moreover, the Papp A→B in data set [2] amounted to 23.9 ×10⁻⁶ cm/s.
For `Oc1c2c(nn1-c1ccccn1)CCc1cc(Br)ccc1-2` the same measures were 7.6 ×10⁻⁶ cm/s and 3.2 ×10⁻⁶ cm/s.
On the same counts, the results for `COc1ccc(NC(=O)c2c(C)[nH]n(-c3ccccn3)c2=O)cc1F` are 13.2 ×10⁻⁶ cm/s and 6.6 ×10⁻⁶ cm/s.
